Measurements reported in publication PMC5966403 (2018).

Experiments:
[1] = tested on: TSL2 (RNA, hairpin) AUUCCUUAAAUUAAGGAGU; assay: TO-PRO-1 fluorescence displacement; conditions: Na+ (185 mM NaCl, 8 mM Na2HPO4); pH 7, 0.1 mM EDTA, 40 μg/mL BSA; 0.5 μM RNA; TO-PRO-1 (1 μM) displaced
[2] = tested on: TSL2 (RNA, hairpin) AUUCCUUAAAUUAAGGAGU; assay: RiboGreen fluorescence displacement; conditions: Na+ (185 mM NaCl, 8 mM Na2HPO4); RiboGreen (300 nM) displaced
[3] = tested on: TSL2 (RNA, hairpin) AUUCCUUAAAUUAAGGAGU; assay: NMR (TOCSY) chemical-shift perturbation; conditions: 40–50 μM RNA, 20 equivalents PK4C9; shifts at U2 and U19

EC50 [1]	binding [2]	binding [3]	Compound
4.5 µM			N=C(N)c1ccc(Nc2ccc(-c3cc4ccc(C(=N)N)cc4[nH]3)cc2)cc1
16 µM	yes	yes	O=C(c1cnc(C(=O)c2c[nH]c3cc(O)ccc23)[nH]1)c1c[nH]c2ccccc12
85.9 µM			O=C(c1cnc(C(=O)c2c[nH]c3ccccc23)[nH]1)c1c[nH]c2ccccc12
